From PMC7237710, “Thanatin Impairs Lipopolysaccharide Transport Complex Assembly by Targeting LptC–LptA Interaction and Decreasing LptA Stability” (Frontiers in Microbiology, 2020)
≈ marks a conversion by molar mass, not a printed value. Entries after “also recorded” stand apart in the source; their conditions may differ. Residues, ends and D or L forms follow the SMILES beside them.

How the values were obtained:
E. coli WT strain MG1655 = test: MIC determination, WT strain MG1655; assay type: cell-based, Escherichia coli
Protocol: (§1) The minimal inhibitory concentration (MIC) values of thanatin, thanatin scramble, and vancomycin (as a positive control) were assessed with a protocol adapted from [Wiegand et al. (2008)] using 96-well microtiter plates. Stationary phase cultures of the E. coli WT strain MG1655 ([Blattner et al., 1997]), the permeabilized mutants AS19 ([Sekiguchi and Iida, 1967]) and NR698 ([Ruiz et al., 2005]), and the BACTH strain BTH101 ([Karimova et al., 1998]; [Ouellette et al., 2017]) grown at 37°C in LB medium, were diluted in fresh medium adjusting the OD600 to a value of 0.05 and incubated in the presence of twofold decreasing concentrations of the compounds ranging from 64 μg/mL to 62.5 ng/mL. After 24 h of incubation at 37°C, the OD600 was measured by a plate reader (EnSpire Multimode Plate Reader, PerkinElmer). The MIC value was determined as the lowest concentration of compound leading to no detectable growth.

[1] = test system: E. coli permeabilized mutant AS19; test: microbe, parasite or virus in culture; assay type: cell-based, Escherichia coli; settings: 24 h
Protocol: as §1

E. coli BTH101 = test: microbe, parasite or virus in culture; assay type: cell-based, Escherichia coli
Protocol: as §1

[2] = test system: E. coli permeabilized mutant NR698; test: microbe, parasite or virus in culture; assay type: cell-based, Escherichia coli; settings: 24 h
Protocol: as §1

LptC–LptA interaction = settings: yeast two-hybrid system; ref Zhang et al., 2019; cited from earlier work
[3] = test system: E. coli and other Enterobacterial species; set-up: method as in Zhang et al., 2019; settings: ref Zhang et al., 2019; cited from earlier work
[4] = in vivo; cited from earlier work
Source text: (§2) Due to its relevance in Gram-negative bacteria cell physiology, LPS biogenesis can be considered a promising target for the development of novel antibacterial molecules. Potent inhibitors of the lipid A biosynthesis were identified in past studies and are continuously in development ([Simpson and Trent, 2019]). Moreover, two compounds targeting the MsbA-mediated IM translocation process have been recently reported ([Ho et al., 2018]; [Zhang et al., 2018]). However, the only inhibitor of LPS biogenesis to have entered, so far, Phase III trials is Murepavadin, a macrocyclic peptidomimetic select ...

[5] = test system: Pseudomonas aeruginosa LptD; settings: ref Srinivas et al., 2010; Lehman and Grabowicz, 2019; cited from earlier work
Source text: as §2

[6] = test system: permeabilized E. coli mutants (AS19 and NR698); test: MIC, permeabilized E. coli mutants; assay type: cell-based, Escherichia coli; settings: permeabilized mutant strains; in words
Protocol: as §1

[7] = test system: LptC–LptAm interaction (T25LptC–TM18LptAm, CA); test: BACTH assay, inhibition of LptC–LptAm interaction; assay type: cell-based, Escherichia coli; settings: BTH101, 18 h, 30°C, 0.5 mM IPTG, 0.7, 1.0, 1.4 μg/mL (sub-MIC), at least eight technical replicates from two independent experiments
Protocol: (§3) To study protein–protein interactions with the BACTH system, electrocompetent BTH101 cells were co-transformed with each pair of plasmids to be tested (Figure 2A), plated onto LB plates containing selective antibiotics (100 μg/mL ampicillin and 50 μg/mL spectinomycin) and incubated at 30°C for 24–48 h. Interaction efficiencies were quantified by determining the β-galactosidase activities in 96-well microtiter plates according to a protocol adapted from [Paschos et al. (2011)]. For this measurement, at least eight clones from each plasmid combination were analyzed for β-galactosidase activity in two independent experiments. […] The β-galactosidase activity was measured from 20 μL culture diluted in 80 μL PM2 buffer (70 mM Na2HPO4. 12H20, 30 mM NaH2PO4. H2O, 1 mM MgSO4, 0.2 mM MnSO4, pH 7.0) containing 8 mg/mL ortho-nitrophenyl-β-galactoside (ONPG), 0.01% SDS, and 50 mM β-mercaptoethanol. […] The optical densities at 420 and 550 nm were recorded for each sample using a plate reader (EnSpire Multimode Plate Reader, PerkinElmer) and the specific activity was calculated with the formula: Miller units = [OD420 - (1.75 × OD550)]/[t × OD600 × (volume in mL)] × 1000, where OD600 is the optical density at 600 nm after overnight incubation and t is the time in minutes needed for color formation.

LptAm = settings: SPR, Biacore T200, CM3 chip, HBS-N; peptide 0, 0.1, 1 μM; listed as Scr
Source text: (§4) Escherichia coli LptC lacking the first 23 residues of the transmembrane domain was expressed from a plasmid (LptC pQESH, QIAGEN) with an N-terminal His-Tag and purified as described ([Laguri et al., 2017]). LptC was expressed in ^15N enriched deuterated medium with specific ^13C-^1H labeling of Isoleucines δ1 and Leucine and Valine proR methyl groups according to standard protocols ([Kerfah et al., 2015]) with NMRbio precursors^1. LptAm coding for residues 28–159 followed by a […] TAG in a pET21b vector was expressed and purified as described ([Laguri et al., 2017]). Both proteins were exchanged to 50 mM Na2HPO4 pH 8.0, 150 mM NaCl buffer.
(§5) Surface plasmon resonance (SPR) experiments were performed on a Biacore T200 with a CM3 chip. HBS-P+ and HBS-N buffers (GE Healthcare) were used for immobilization and interactions, respectively. 66 Resonance units (RUs) of LptAm were immobilized on a flow cell by the amine (EDC-NHS) coupling method followed by ethanolamine saturation, with a flow cell modified only with EDC-NHS-ethanolamine as reference for subtractions. For interactions, protein and ligands were diluted in HBS-N running buffer and regeneration between injections achieved with a 30 s pulse of 10 mM HCl. Sensorgrams shown were subtracted with the reference flow cell as well as with injection of buffer alone.

[8] = test system: LptA–LptA interaction (TM25LptA–TM18LptA, AA); test: BACTH assay, inhibition of LptA–LptA interaction; assay type: cell-based, Escherichia coli; settings: BTH101, 18 h, 30°C, 0.5 mM IPTG, 0.7, 1.0, 1.4, 2.8 μg/mL (sub-MIC); at least eight technical replicates from two independent experiments
Protocol: as §3

LptC–LptAm interaction = test: SPR, effect on LptC binding to immobilized LptAm; set-up: species or system Escherichia coli; settings: peptide up to 1 μM followed by LptC injection at 10 μM, HBS-N, listed as Scr
Source text: as §4, §5

LptC–LptAm complex = test: NMR, disruption of LptC–LptAm complex; assay type: binding, Escherichia coli; settings: 2D-[1H,13C]-methyl-SOFAST, 25°C, 20 μM LptC, 40 μM LptAm, 42 μM peptide, 50 mM Na2HPO4 pH 8.0, 150 mM NaCl, 10% D2O
Protocol: Nuclear magnetic resonance experiments were recorded at 25°C on Bruker 600 MHz spectrometer equipped with a triple resonance cryoprobe. […] Unlabeled LptAm at 40 μM prepared in the exact same buffer was added to LptC to achieve 100% of LptC complexed with LptAm. Thanatin or Scr at 42 μM was added to the complex and interaction experiments were followed using 2D-[^1H, ^13C]-methyl-SOFAST experiments. NMR experiments were processed and analyzed using Topspin 3.2 and CcpNmr 2.4.

immobilized LptAm = test: SPR, Kd of LptC–LptAm; set-up: species or system Escherichia coli; settings: LptC (5.6–100 μM) over immobilized LptAm, CM3 chip, HBS-N, steady-state binding levels, read-out: Kd of LptC–LptAm interaction
Source text: as §4, §5

[9] = biological target: T1, His6-LptC_(24-191), LptC lacking the first 23 residues of the transmembrane domain (Escherichia coli, UniProt P0ADV9 24-191); test: SPR; settings: both partners purified
T1 sequence (looked up): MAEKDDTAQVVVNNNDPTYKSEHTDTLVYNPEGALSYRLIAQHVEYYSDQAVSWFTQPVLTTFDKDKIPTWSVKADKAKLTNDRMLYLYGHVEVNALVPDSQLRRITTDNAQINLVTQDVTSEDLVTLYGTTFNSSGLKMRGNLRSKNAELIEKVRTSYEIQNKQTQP

CN[C@H](CC(C)C)C(=O)N[C@H]1C(=O)N[C@@H](CC(N)=O)C(=O)N[C@H]2C(=O)N[C@H]3C(=O)N[C@H](C(=O)N[C@H](C(=O)O)c4cc(O)cc(O)c4-c4cc3ccc4O)[C@H](O)c3ccc(c(Cl)c3)Oc3cc2cc(c3O[C@@H]2O[C@H](CO)[C@@H](O)[C@H](O)[C@H]2O[C@H]2C[C@](C)(N)[C@H](O)[C@H](C)O2)Oc2ccc(cc2Cl)[C@H]1O [Vancomycin, reference compound]
MIC (E. coli WT strain MG1655; Escherichia coli, MG1655, 24 h): > 64 µg/mL
MIC ([1]; Escherichia coli): 4 to 8 µg/mL (≈ 2.76 to 5.52 µM)
MIC (E. coli BTH101; Escherichia coli, BTH101, 24 h): > 64 µg/mL
MIC ([2]; Escherichia coli): 0.5 to 1 µg/mL (≈ 0.345 to 0.69 µM)

Clc1cc2c(c3ncccc13)OCN(CCc1ccccc1)C2 [IMB-881]
disruption of LptC–LptA interaction (LptC–LptA interaction): inhibiting LptC–LptA interaction; also recorded: disrupts LptC–LptA interaction
bactericidal activity [3]: bactericidal activity

Murepavadin
clinical toxicity [4]: nephrotoxicity
target selectivity [5]: selectively directed against Pseudomonas aeruginosa LptD

CC[C@H](C)[C@H](NC(=O)[C@H](CS)NC(=O)[C@@H](NC(=O)[C@@H](N)Cc1ccc(O)cc1)C(C)C)C(=O)N[C@@H](CCCNC(=N)N)C(=O)N[C@@H](CCSC)C(=O)N[C@@H](CC(N)=O)C(=O)N[C@@H](CCCCN)C(=O)N[C@H](C(=O)N[C@@H](CO)C(=O)N1CCC[C@H]1C(=O)N[C@@H](CCCCN)C(=O)N[C@@H](CCC(N)=O)C(=O)N[C@@H](CCCNC(=N)N)C(=O)N[C@H](C(=O)N1CCC[C@H]1C(=O)NCC(=O)NCC(=O)N[C@@H](CCCNC(=N)N)C(=O)N[C@@H](CS)C(=O)N[C@@H](CCCCN)C(=O)O)[C@@H](C)O)[C@@H](C)CC [Thanatin scramble] (H-YVCIRMNKISPKQRTPGGRCK-OH; N-terminus and C-terminus assumed)
MIC (E. coli WT strain MG1655; MG1655, LB, 24 h, 37°C, start OD600 0.05, twofold dilutions 64 μg/mL to 62.5 ng/mL, OD600 read-out): above 64 μg/mL
antibacterial activity (E. coli WT strain MG1655; scrambled vs thanatin, in words): loses the antibacterial activity
MIC relative to WT strain / antibacterial activity [6]: no significant difference relative to the WT strain
effect on LptC–LptAm interaction (β-galactosidase activity) [7]: fails to disrupt the LptC–LptA interaction in vivo (BACTH assay)
effect on LptC–LptAm interaction (β-galactosidase activity) ([7]; listed as thanatin scramble): not capable of disrupting these periplasmic interactions in a dose-dependent manner
binding to immobilized LptAm (LptAm): no or little binding
MIC ([1]; AS19, LB, 37°C, start OD600 0.05, twofold dilutions 64 μg/mL to 62.5 ng/mL, OD600 read-out): 64 µg/mL (≈ 26.3 µM)
MIC (E. coli BTH101; BTH101, LB, 24 h, 37°C, start OD600 0.05, twofold dilutions 64 μg/mL to 62.5 ng/mL, OD600 read-out): >64 µg/mL
MIC ([2]; NR698, LB, 37°C, start OD600 0.05, twofold dilutions 64 μg/mL to 62.5 ng/mL, OD600 read-out): 32 to 64 µg/mL
effect on LptA–LptA interaction (β-galactosidase activity) [8]: not capable of disrupting these periplasmic interactions in a dose-dependent manner
effect on LptC binding to immobilized LptAm (LptC–LptAm interaction): no effect on LptC binding
disruption of LptC–LptAm complex (175Ile and 184Ile δ1 methyl shifts) (LptC–LptAm complex): did not change LptC–LptAm spectra; also recorded: fails to disrupt the LptC–LptA interaction in vivo (BACTH assay) and in vitro (NMR)
disruption of LptC–LptAm complex (175Ile and 184Ile δ1 methyl shifts) (LptC–LptAm complex; listed as thanatin scramble): no disruption of the LptC–LptAm complex

B1: LptC: Escherichia coli LptC lacking the first 23 residues of the transmembrane domain, with an N-terminal His-Tag (protein, UniProt P0ADV9 24-191, looked up, fragment)
chain: T1 sequence (looked up)
modifications: N-terminal His-tag
notes: Escherichia coli LptC lacking the first 23 residues of the transmembrane domain, with an N-terminal His-Tag
Kd (immobilized LptAm): 80 ± 44 µM

B2: LptAm, LptA residues 28-159 followed by a … tag (purified) (domain or fragment, Escherichia coli, UniProt P0ADV1 28-159, looked up)
chain: VTGDTDQPIHIESDQQSLDMQGNVVTFTGNVIVTQGTIKINADKVVVTRPGGEQGKEVIDGYGKPATFYQMQDNGKPVEGHASQMHYELAKDFVVLTGNAYLQQVDSNIKGDKITYLVKEQKMQAFSDKGKR
notes: also called LptAΔ_(160–185)-His6; monomeric version of LptA; source: E. coli BL21(DE3) (pET21b vector), purified as described (Laguri et al., 2017)
Kd [9]: 80 ± 44 µM
